Experimental data reported in patent US5135928A, “Triazolo derivatives and process for their preparation” (Egis Gyogyszergyar, priority 1989, dated 1992).

Experiments:
mice = test: Hexobarbital narcosis on mice; format: in vivo; details: oral; for ED50: Mus musculus, 1 hour before Hexobarbital 40 mg/kg i.v., positive = sleeping time more than 2.5 times longer than control; for Therapeutical index: Hexobarbital narcosis
Experimental: 1. Hexobarbital narcosis on mice
Method: Kaergaard, Arch. Int. Pharmacodyn. 2, 170, (1967)
Groups consisting of 6 mice are used for each dose. The animals are treated orally with the test compound (the control group receives a vehicle), whereby sleeping is induced 1 hour later by administering a 40 mg/kg i.v. dose of Hexobarbital both to the test and control groups.
Animals which have a sleeping time more than 2.5 times longer than that of the control group are considered to show a positive reaction. ED50 values are calculated from the thus-transformed data.

rats = test: Antianginal effect (vasopressin-induced experimental coronaria insufficiency, height of wave T in ECG); format: in vivo; details: Rattus norvegicus, iv, 2 minutes prior to vasopressin i.v.; narcotised male rats 180-220 g
Experimental: Male rats of 180-220 g body weight were narcotised with chloralese-urethane(70/700 mg/kg ip.). The ECG was registered with needle electrodes in standard II leading. The experimental coronaria insufficiency was induced with vasopressin (4 NE/kg i.v.). The height of wave T in ECG was measured before and after the administration of vasopressin in both the control and treated groups. Test compounds were administered intravenously 2 minutes prior to the treatment with vasopressin.

Row | SMILES | ED50 (mice) | Therapeutical index (mice) | ED50 (rats)
1 | CC1Nc2nc(N3CCOCC3)nn2C(=S)N(C)N1 (centres unmarked) [Example 41, 6,8-Dimethyl-2-morpholino-5,6,8,9-tetrahydro[1,2,4]-triazolo-[1,5-d][1,2,4,6]tetrazepine-5(7H)-thione] | 200 mg/kg | 10.0 | –
2 | CSc1nc2n(n1)C(=S)N(C)NC1(CCCCC1)N2 [Example 47, 6-Methyl-2-methylthio-5,6,8,9-tetrahydro[1,2,4]-triazolo[1,5-d][1,2,4,6]tetrazepine-5(7H)-thione-8-spiro-1'-cyclohexane] | 200 mg/kg | 10.0 | –
3 | CN1NC2(CCCC2)Nc2nc(N3CCOCC3)nn2C1=S [Example 48, 6-Methyl-2-morpholino-5,6,8,9-tetrahydro[1,2,4]-triazolo[1,5-d][1,2,4,6]tetrazepine-5(7H)-thione-8-spiro-1'-cyclopentane] | – | – | 1.35 mg/kg
4 | CCOC(=O)CCC1(C)Nc2nc(N3CCOCC3)nn2C(=S)N(C)N1 (centres unmarked) [Example 58, 6,8-Dimethyl-8-(ethoxycarbonyl-ethyl)-2-morpholino-5,6,8,9-tetrahydro[1,2,4]triazolo[1,5-d][1,2,4,6]-tetrazepine-5(7H)-thione] | 160 mg/kg | 12.5 | –
5 | CN(N=Cc1c(Cl)cccc1Cl)C(=S)n1nc(N2CCOCC2)nc1N [Example 5, 1-(5-Amino-3-morpholino-1H-1,2,4-triazol-1-yl)-N-methyl-N'-(2,6-dichlorobenzylidene)carbothiohydrazide] | 36 mg/kg | 27.8 | –
6 | CN(N=Cc1ccc(OCC(N)=O)cc1)C(=S)n1nc(N2CCOCC2)nc1N [Example 7, 1-(5-Amino-3-morpholino-1H-1,2,4-triazol-1-yl)-N-methyl-N'-(4-carbamoylmethoxybenzylidene)carbothiohydrazide] | 110 mg/kg | 9.1 | –
7 | CC(Cc1ccccc1)NCCC(c1ccccc1)c1ccccc1 (centres unmarked) [Prenylamine, reference compound] | – | – | 6.5 mg/kg
8 | CN1NC2(CCCCCCCCCCC2)Nc2nc(N3CCOCC3)nn2C1=S [Example 53, 6-Methyl-2-morpholino-5,6,8,9-tetrahydro-1,2,4-triazolo[1,5-d][1,2,4,6]tetrazepine-5(7H)-thione-8-spiro-1'-cyclododecane] | 41 mg/kg | 48.8 | 1 mg/kg
9 | COc1cc(C=NN(C)C(=S)n2nc(SC)nc2N)ccc1O [Example 22, 1-(5-Amino-3-methylthio-1H-1,2,4-triazol-1-yl)-N-methyl-N'-(4-hydroxy-3-methoxybenzylidene)carbothiohydrazide] | 110 mg/kg | 5.1 | –
10 | CCCC(C)(COC(N)=O)COC(N)=O [Meprobamate, reference compound] | 270 mg/kg | 4.1 | –
11 | COC(=O)CC1(C)Nc2nc(SC)nn2C(=S)N(C)N1 (centres unmarked) [Example 57, 6,8-Dimethyl-8-methoxycarbonyl-methyl-2-methylthio-5,6,8,9tetrahydro[1,2,4]triazolo[1,5-d][1,2,4,6]-tetrazepine-5(7H)-thione] | – | – | 1.65 mg/kg
